US20220054513A1, “COMBINATION COMPOSITIONS COMPRISING A BETA-LACTAMASE INHIBITOR” (VenatoRx Pharmaceuticals, Inc., priority 2018, published 2022)
Read-outs that look alike come from different tables or passages of the source.

Tests used:
[1] = system: β-lactamase expressing E. cloacae; assay: broth microdilution MIC of cefiderocol +/- Compound 1, E. cloacae strains; assay type: cell-based; details: Enterobacter cloacae
[2] = system: carbapenem resistant Enterobacteriaceae (CRE); assay: MIC of cefiderocol with Compound 1 vs approved BL/BLI combinations, 120 CRE isolates
Experimental: A panel of 30 strains of characterized Enterobacteriaceae isolates produce Ambler class A, B, C, and D β-lactamase were used. […] IDM was prepared by adding 100 g of chelex (a chelating agent) to 1 L of sterile CAMBH and stirring for 2 hours. The chelex treated media was then filtered using a 0.2 μm filter and divalent Ca, Mg, and Zn are added back at relevant concentrations. The pH was adjusted to 7.2 using HCl and the media was filtered again to ensure sterility. This created a medium that was devoid of iron but retains appropriate concentration of other cations and was necessary for evaluating the activity of cefiderocol originating from its uptake by bacterial iron transporters. Bacteria strains were grown for 3-5 hours in CAMHB and IDM. Cefiderocol was added either to a microtiter plate in 2-fold serial dilutions in CAMHB and in parallel in IDM. […] Once the test articles were added the plates were inoculated according to CLSI broth microdilution method.
The challenge set of organisms consisted of a variety of Enterobacteriaceae species expressing IMP (n=30), NDM (30), VIM (15), KPC (n=30), and AmpC (n=15).

SMILES: CC(C)(O/N=C(\C(=O)N[C@@H]1C(=O)N2C(C(=O)[O-])=C(C[N+]3(CCNC(=O)c4ccc(O)c(O)c4Cl)CCCC3)CS[C@H]12)c1csc(N)n1)C(=O)O [FDC, cefiderocol]
- MIC ([1]; read-out: Minimum inhibitory concentration (MIC), E. cloacae CDC-93 (KPC), IDM): 0.5 µg/mL
- MIC ([1]; read-out: Minimum inhibitory concentration (MIC), E. cloacae CDC-93 (KPC), MHBII): 1 µg/mL
- MIC ([1]; read-out: Minimum inhibitory concentration (MIC), E. cloacae CDC-161 (IMP), IDM): 1 µg/mL
- MIC ([1]; read-out: Minimum inhibitory concentration (MIC), E. cloacae CDC-161 (IMP), MHBII): 16 µg/mL
- MIC ([1]; read-out: Minimum inhibitory concentration (MIC), E. cloacae Entb239 (p99 AmpC, KPC-3, CTXM-15, GES-1, IMI-1), IDM): 2 µg/mL
- MIC ([1]; read-out: Minimum inhibitory concentration (MIC), E. cloacae Entb239 (p99 AmpC, KPC-3, CTXM-15, GES-1, IMI-1), MHBII): 1 µg/mL
- MIC [2]: 0.059 µg/mL
- MIC50 [2]: 1 µg/mL
- MIC90 [2]: 8 µg/mL
- MIC ([2]; Enterobacter cloacae, Enterobacter cloacae 1207515 (NDM-6), IDM): 64 µg/mL
- MIC ([2]; Enterobacter cloacae, Enterobacter cloacae 1212159 (NDM-6), IDM): 16 µg/mL
- MIC ([2]; Enterobacter cloacae, Enterobacter cloacae 1212160 (NDM-6), IDM): 16 µg/mL
- MIC ([2]; Enterobacter cloacae, Enterobacter cloacae 1256568 (VIM-23), IDM): 0.125 µg/mL
- MIC ([2]; Enterobacter cloacae, Enterobacter cloacae 1284042 (VIM-5), IDM): 8 µg/mL
- MIC ([2]; Enterobacter cloacae, Enterobacter cloacae 1284044 (VIM-5), IDM): 4 µg/mL
- MIC ([2]; Enterobacter cloacae, Enterobacter cloacae 1284065 (VIM-5), IDM): 4 µg/mL
- MIC ([2]; Enterobacter cloacae, Enterobacter cloacae 1284066 (VIM-5), IDM): 32 µg/mL
- MIC ([2]; Enterobacter cloacae, Enterobacter cloacae 1455568 (NDM-4), IDM): 16 µg/mL
- MIC ([2]; Enterobacter cloacae, Enterobacter cloacae 1488830 (IMP-14), IDM): 2 µg/mL
- MIC ([2]; Enterobacter cloacae, Enterobacter cloacae 1490669 (IMP-4), IDM): 0.25 µg/mL
- MIC ([2]; Enterobacter cloacae, Enterobacter cloacae 1590932 (VIM-4), IDM): 2 µg/mL
- MIC ([2]; Enterobacter cloacae, Enterobacter cloacae 1703478 (IMP-4), IDM): 0.125 µg/mL
- MIC ([2]; Enterobacter cloacae, Enterobacter cloacae IHMA 908146 (ACT-1, CTX-M-22, IMP), IDM): 0.125 µg/mL
- MIC ([2]; Escherichia coli, Escherichia coli 128 (AmpC, SHV-12, TOHO-2, TEM-1), IDM): 0.5 µg/mL
- MIC ([2]; Escherichia coli, Escherichia coli 233 (AmpC, SHV-2, KPC-3, CTX-M-15 and TEM-1), IDM): 1 µg/mL
- MIC ([2]; Escherichia coli, Escherichia coli 469 (AmpC, SHV-12, TEM-1), IDM): 0.5 µg/mL
- MIC ([2]; Escherichia coli, Escherichia coli 3073 (AmpC, CTX-M-3), IDM): 1 µg/mL
- MIC ([2]; Escherichia coli, Escherichia coli 3102 (AmpC, CTX-M-15, TEM-1), IDM): 0.059 µg/mL
- MIC ([2]; Escherichia coli, Escherichia coli 54321 (AmpC, CTX-M-15, TEM-1), IDM): 2 µg/mL
- MIC ([2]; Escherichia coli, Escherichia coli 64167 (AmpC, TEM-1, GES-5), IDM): 0.25 µg/mL
- MIC ([2]; Escherichia coli, Escherichia coli 786978 (KPC-2), IDM): 0.5 µg/mL
- MIC ([2]; Escherichia coli, Escherichia coli 1266865 (NDM-5), IDM): 8 µg/mL
- MIC ([2]; Escherichia coli, Escherichia coli 1275629 (VIM-23), IDM): 0.5 µg/mL
- MIC ([2]; Escherichia coli, Escherichia coli 1275635 (VIM-23), IDM): 0.5 µg/mL
- MIC ([2]; Escherichia coli, Escherichia coli 1371539 (NDM-6), IDM): 2 µg/mL
- MIC ([2]; Escherichia coli, Escherichia coli 1424126 (NDM-5), IDM): 128 µg/mL
- MIC ([2]; Escherichia coli, Escherichia coli 1438691 (NDM-5), IDM): 16 µg/mL
- MIC ([2]; Escherichia coli, Escherichia coli 1438767 (NDM-5), IDM): 128 µg/mL
- MIC ([2]; Escherichia coli, Escherichia coli 1468388 (IMP-59), IDM): 2 µg/mL
- MIC ([2]; Escherichia coli, Escherichia coli CH1 (AmpC, TEM-1, CTX-M-15, SHV-5, SHV-1), IDM): 0.25 µg/mL
- MIC ([2]; Escherichia coli, Escherichia coli EC15521A (AmpC, CMY-2, TEM-1), IDM): 4 µg/mL
- MIC ([2]; Escherichia coli, Escherichia coli EC15522A (AmpC, CMY-2, TEM-1, CTX-M-15), IDM): 0.059 µg/mL
- MIC ([2]; Escherichia coli, Escherichia coli J53 (SHV-5, AmpC, TEM-1), IDM): 0.03 µg/mL
- MIC ([2]; Escherichia coli, Escherichia coli SI-LP505 (AmpC, CTX-M-14, TEM-1), IDM): 0.5 µg/mL
- MIC ([2]; Escherichia coli, Escherichia coli SI-LP574 (AmpC, CTX-M-14, TEM-1), IDM): 0.059 µg/mL
- MIC ([2]; Escherichia coli, Escherichia coli SI-P026 (AmpC, CMY-2, TEM-1), IDM): 0.059 µg/mL
- MIC ([2]; Escherichia coli, Escherichia coli SI-Vr059 (AmpC, CTX-M-32 and TEM-1), IDM): 2 µg/mL
- MIC ([2]; Klebsiella aerogenes, Enterobacter aerogenes 847438 (CTX-M-2, KPC), IDM): 0.059 µg/mL
- MIC ([2]; Klebsiella aerogenes, Enterobacter aerogenes CDC-0161 (IMP-4, TEM-1B, OXA-1, SFO-1), IDM): 2 µg/mL
- MIC ([2]; Klebsiella aerogenes, Enterobacter aerogenes IHMA 846505 (CMY-2, IMP), IDM): 0.5 µg/mL
- MIC ([2]; Klebsiella aerogenes, Enterobacter aerogenes IHMA 890184 (IMP), IDM): 0.059 µg/mL
- MIC ([2]; Klebsiella oxytoca, Klebsiella oxytoca 847537 (KPC-2), IDM): 1 µg/mL
- MIC ([2]; Klebsiella oxytoca, Klebsiella oxytoca 847539 (CTX-M-2, KPC), IDM): 1 µg/mL
- MIC ([2]; Klebsiella oxytoca, Klebsiella oxytoca 1274060 (IMP-4), IDM): 0.059 µg/mL
- MIC ([2]; Klebsiella oxytoca, Klebsiella oxytoca 1417076 (IMP-8), IDM): 4 µg/mL
- MIC ([2]; Klebsiella oxytoca, Klebsiella oxytoca 1417077 (IMP-8), IDM): 4 µg/mL
- MIC ([2]; Klebsiella oxytoca, Klebsiella oxytoca 1585615 (IMP-4), IDM): 0.25 µg/mL
- MIC ([2]; Klebsiella oxytoca, Klebsiella oxytoca 1622674 (VIM-44), IDM): 1 µg/mL
- MIC ([2]; Klebsiella oxytoca, Klebsiella oxytoca IHMA 871515 (IMP, KPC-2, SHV-12), IDM): 1 µg/mL
- MIC ([2]; Klebsiella oxytoca, Klebsiella oxytoca IHMA 871516 (IMP, KPC-2, SHV-12), IDM): 0.059 µg/mL
- MIC ([2]; Klebsiella oxytoca, Klebsiella oxytoca IHMA 871518 (IMP, KPC-2, SHV-12), IDM): 1 µg/mL
- MIC ([2]; Klebsiella pneumoniae, Klebsiella pneumoniae 845661 (KPC-3), IDM): 1 µg/mL
- MIC ([2]; Klebsiella pneumoniae, Klebsiella pneumoniae 845662 (KPC-3), IDM): 4 µg/mL
- MIC ([2]; Klebsiella pneumoniae, Klebsiella pneumoniae 845665 (KPC-3), IDM): 1 µg/mL
